For this assay, the system named is acute liver injury induced by carbon tetrachloride. The experiment in a line: Protective effect on acute liver injury induced by carbon tetrachloride (mice, oral): plasma GPT activity and BSP retention. Type of assay: in vivo, mice (ddY, male). The following applies: 6 h before CCl4 (0.05 ml/kg p.o.); for GPT activity: plasma; for Retained BSP: plasma 30 min after BSP 75 mg/kg i.v. The protocol: 1. Protective Effect on Acute Liver Injury Induced by Carbon Tetrachloride
A test compound was dissolved or suspended in olive oil and administered orally to mice (ddY mice, .male., 23±2 g, n=5). After 6 hours, carbon tetrachloride (0.05 ml/kg) was administered orally. 24 Hours after the administration of carbon tetrachloride, BSP (sodium sulfobromophthalein; 75 mg/kg) was administered intravenously. Thirty minutes later, the cardiac blood was collected, and GPT (glutamic-pyruvic transaminase) activity and the retention rate of BSP in the plasma were measured.

SMILES strings stand for the structures.

Consider `NC(=O)C1CC[N+](=c2sccs2)CC1.[I-]` (stereo not shown) [Compound No. 58, 1-(1,3-dithiol-2-ylidene)-4-carbamoylpiperidinium iodide], for which, under “1 mg/kg”, the GPT activity was determined as 3266 ± 245 Karmen units and the “Retained BSP” value was 98.1 ± 21.0 µg/mL. Where the note is “5 mg/kg”, the GPT activity is 1151 ± 181 Karmen units and the “Retained BSP” value is 41.5 ± 7.1 µg/mL.

As for `[O-][Cl+3]([O-])([O-])[O-].c1csc(=[N+]2CCCC2)s1` [Compound No. 35, 1-(1,3-dithiol-2-ylidene)pyrrolidinium perchlorate], under “1 mg/kg”, the GPT activity was found to be 4239 ± 816 Karmen units and the “Retained BSP” value came to 101.2 ± 22.6 µg/mL. Also, for the setting “5 mg/kg”, the GPT activity is 2472 ± 820 Karmen units and the “Retained BSP” value was 35.8 ± 12.4 µg/mL.

Turning to `C[N+](Cc1ccccc1)=c1sccs1.[O-][Cl+3]([O-])([O-])[O-]` [Compound No. 10, N-(1,3-dithiol-2-ylidene)-N-methyl-N-benzylammonium perchlorate], the GPT activity is, setting by setting: (1 mg/kg) 1865 ± 106 Karmen units; (5 mg/kg) 108 ± 27 Karmen units. Besides, the “Retained BSP” value runs as follows: (1 mg/kg) 29.5 ± 6.0 µg/mL; (5 mg/kg) 16.6 ± 1.6 µg/mL.

On to `Cc1cccc([N+](C)=c2sccs2)c1.[O-][Cl+3]([O-])([O-])[O-]` [Compound No. 9, N-(1,3-dithiol-2-ylidene)-N-methyl-N-(m-tolyl)ammonium perchlorate], for which, where the note is “1 mg/kg”, the GPT activity was 2250 ± 325 Karmen units and the “Retained BSP” value is 73.1 ± 14.7 µg/mL. For the setting “5 mg/kg”, the GPT activity is on record as 191 ± 71 Karmen units and the “Retained BSP” value was determined as 21.4 ± 2.1 µg/mL.

As for `CC(C)CC(C(=O)OC(C)C)[N+](C)=c1sccs1.[O-][Cl+3]([O-])([O-])[O-]` (stereo not shown) [Compound No. 18, N-(1,3-dithiol-2-ylidene)-N-methyl-N-(3-methyl-1-isopropoxycarbonylbutyl)ammonium perchlorate], for the setting “1 mg/kg”, the GPT activity is reported as 4100 ± 615 Karmen units and the “Retained BSP” value came out at 106.9 ± 17.5 µg/mL. For the setting “5 mg/kg”, the GPT activity came out at 3250 ± 365 Karmen units and the “Retained BSP” value was determined as 44.1 ± 5.2 µg/mL.

On to `C[N+](CCC#N)=c1sccs1.[I-]` [Compound No. 4, N-(1,3-dithiol-2-ylidene)-N-methyl-N-(2-cyanoethyl)ammonium iodide], for which, where the note is “1 mg/kg”, the GPT activity amounted to 2535 ± 158 Karmen units and the “Retained BSP” value is 42.6 ± 2.3 µg/mL. Moreover, for the setting “5 mg/kg”, the GPT activity amounted to 543 ± 92 Karmen units and the “Retained BSP” value is 29.4 ± 11.1 µg/mL.

On to `COC(=O)CC(C(=O)OC)[N+](C)=c1sccs1.[O-][Cl+3]([O-])([O-])[O-]` (stereo not shown) [Compound No. 17, N-(1,3-dithiol-2-ylidene)-N-methyl-N-(1,2-dimethoxycarbonylethyl)ammonium perchlorate], for which, for the setting “1 mg/kg”, the GPT activity was 4760 ± 298 Karmen units and the “Retained BSP” value was 135 ± 8.9 µg/mL. Besides, under “5 mg/kg”, the GPT activity is 3883 ± 324 Karmen units and the “Retained BSP” value is 86 ± 11.1 µg/mL.

As for `C=CC[N+](CC=C)=c1sccs1.[O-][Cl+3]([O-])([O-])[O-]` [Compound No. 12, N-(1,3-dithiol-2-ylidene)-N,N-diallylammonium perchlorate], the GPT activity is, setting by setting: (1 mg/kg) 5438 ± 401 Karmen units; (5 mg/kg) 1241 ± 103 Karmen units. The “Retained BSP” value worked out at 109.3 ± 14.8 µg/mL (1 mg/kg) and 25.4 ± 5.0 µg/mL (5 mg/kg).

As for `CC1CC[N+](=c2sccs2)CC1.[O-][Cl+3]([O-])([O-])[O-]` (stereo not shown) [Compound No. 53, 1-(1,3-dithiol-2-ylidene)-4-methylpiperidinium perchlorate], the GPT activity was found to be 1843 ± 162 Karmen units (1 mg/kg) and 193 ± 81 Karmen units (5 mg/kg). Moreover, the “Retained BSP” value reads like this: (1 mg/kg) 70.0 ± 19.3 µg/mL; (5 mg/kg) 16.9 ± 3.1 µg/mL.

As to `O=C(O)C1CC[N+](=c2sccs2)CC1.[O-][Cl+3]([O-])([O-])[O-]` (stereo not shown) [Compound No. 57, 1-(1,3-dithiol-2-ylidene)-4-carboxypiperidinium perchlorate], under “1 mg/kg”, the GPT activity worked out at 3735 ± 374 Karmen units and the “Retained BSP” value was found to be 101.1 ± 20.0 µg/mL. Besides, where the note is “5 mg/kg”, the GPT activity is reported as 2922 ± 247 Karmen units and the “Retained BSP” value came out at 90.1 ± 14.7 µg/mL.

As to `CCCCCCC1CCC[N+]1=c1sccs1.[O-][Cl+3]([O-])([O-])[O-]` (stereo not shown) [Compound No. 45, 1-(1,3-dithiol-2-ylidene)-2-(n-hexyl)pyrrolidinium perchlorate], the GPT activity (1 mg/kg) is listed as 4264 ± 521 Karmen units and the GPT activity (5 mg/kg) is recorded as 1072 ± 282 Karmen units. Further, the “Retained BSP” value (1 mg/kg) is 110 ± 20.5 µg/mL and the “Retained BSP” value (5 mg/kg) was 76 ± 6.3 µg/mL.

Turning to `C[N+](c1ccccc1)=c1sccs1.[O-][Cl+3]([O-])([O-])[O-]` [Compound No. 8, N-(1,3-dithiol-2-ylidene)-N-methyl-N-phenylammonium perchlorate], for the setting “1 mg/kg”, the GPT activity was 2394 ± 193 Karmen units and the “Retained BSP” value worked out at 39.3 ± 10.7 µg/mL. Moreover, under “5 mg/kg”, the GPT activity was 117 ± 28 Karmen units and the “Retained BSP” value is 11.6 ± 1.5 µg/mL.

With `CNC(=O)C[N+](C)=c1sccs1` [Compound No. 3, N-(1,3-dithiol-2-ylidene)-N-methyl-N-(N'-methylcarbamoylmethyl)ammonium perchlorate], the GPT activity reads like this: (1 mg/kg) 3740 ± 430 Karmen units; (5 mg/kg) 541 ± 101 Karmen units. The “Retained BSP” value came to 67.1 ± 14.3 µg/mL (1 mg/kg) and 27.1 ± 10.1 µg/mL (5 mg/kg).

For the compound `[O-][Cl+3]([O-])([O-])[O-].c1ccc(C2CCC[N+]2=c2sccs2)cc1` (stereo not shown) [Compound No. 46, 1-(1,3-dithiol-2-ylidene)-2-phenylpyrrolidinium perchlorate], where the note is “1 mg/kg”, the GPT activity came to 3978 ± 627 Karmen units and the “Retained BSP” value is 101 ± 17.4 µg/mL. Besides, for the setting “5 mg/kg”, the GPT activity was determined as 1040 ± 121 Karmen units and the “Retained BSP” value stood at 69 ± 7.1 µg/mL.

On to `[O-][Cl+3]([O-])([O-])[O-].c1csc(=[N+]2CCOCC2)s1` [Compound No. 26, 4-(1,3-dithiol-2-ylidene)morpholinium perchlorate], for which, under “1 mg/kg”, the GPT activity was 483 ± 178 Karmen units and the “Retained BSP” value worked out at 21.6 ± 2.7 µg/mL. Moreover, where the note is “5 mg/kg”, the GPT activity is on record as 113 ± 32 Karmen units and the “Retained BSP” value is 13.8 ± 2.5 µg/mL.

Consider `N#CC1CC[N+](=c2sccs2)CC1.[O-][Cl+3]([O-])([O-])[O-]` (stereo not shown) [Compound No. 59, 1-(1,3-dithiol-2-ylidene)-4-cyanopiperidinium perchlorate], for which the GPT activity runs as follows: (1 mg/kg) 2991 ± 382 Karmen units; (5 mg/kg) 763 ± 118 Karmen units. Also, the “Retained BSP” value runs as follows: (1 mg/kg) 110.1 ± 27.3 µg/mL; (5 mg/kg) 49.1 ± 8.1 µg/mL.

Turning to `NC(=O)C1CCC[N+]1=c1sccs1.[I-]` (stereo not shown) [Compound No. 44, 1-(1,3-dithiol-2-ylidene)-2-carbamoylpyrrolidinium iodide], for the setting “1 mg/kg”, the GPT activity is reported as 6311 ± 867 Karmen units and the “Retained BSP” value was found to be 134.7 ± 21.7 µg/mL. Where the note is “5 mg/kg”, the GPT activity worked out at 5213 ± 716 Karmen units and the “Retained BSP” value stood at 119.4 ± 11.8 µg/mL.

With `[O-][Cl+3]([O-])([O-])[O-].c1csc(=[N+]2CCCCC2)s1` [Compound No. 34, 1-(1,3-dithiol-2-ylidene)piperidinium perchlorate], under “1 mg/kg”, the GPT activity is 512 ± 205 Karmen units and the “Retained BSP” value came to 26.5 ± 8.0 µg/mL. For the setting “5 mg/kg”, the GPT activity turned out to be 116 ± 39 Karmen units and the “Retained BSP” value is 15.6 ± 3.0 µg/mL.

On to `C[N+](=c1sccs1)C1CCCCC1.[O-][Cl+3]([O-])([O-])[O-]` [Compound No. 7, N-(1,3-dithiol-2-ylidene)-N-methyl-N-cyclohexylammonium perchlorate], for which, under “1 mg/kg”, the GPT activity is recorded as 4920 ± 670 Karmen units and the “Retained BSP” value was 120.1 ± 17.1 µg/mL. Moreover, where the note is “5 mg/kg”, the GPT activity is given as 1400 ± 77 Karmen units and the “Retained BSP” value is 57.1 ± 5.1 µg/mL.

`[O-][Cl+3]([O-])([O-])[O-].c1ccc(C[N+](Cc2ccccc2)=c2sccs2)cc1` [Compound No. 16, N-(1,3-dithiol-2-ylidene)-N,N-dibenzylammonium perchlorate]: the GPT activity runs as follows: (1 mg/kg) 4121 ± 311 Karmen units; (5 mg/kg) 1017 ± 37 Karmen units. Further, the “Retained BSP” value reads like this: (1 mg/kg) 107.4 ± 13.9 µg/mL; (5 mg/kg) 21.8 ± 6.0 µg/mL.

As to `CCOC(=O)C1CCC[N+]1=c1sccs1.[Cl-]` (stereo not shown) [Compound No. 42, 1-(1,3-dithiol-2-ylidene)-2-ethoxycarbonyl pyrrolidinium chloride], the GPT activity (1 mg/kg) was determined as 1673 ± 214 Karmen units and the GPT activity (5 mg/kg) is reported as 231 ± 43 Karmen units. The “Retained BSP” value runs as follows: (1 mg/kg) 53.1 ± 6.3 µg/mL; (5 mg/kg) 21.4 ± 3.5 µg/mL.

For `OC1CC[N+](=c2sccs2)CC1.[O-][Cl+3]([O-])([O-])[O-]` (stereo not shown) [Compound No. 60, 1-(1,3-dithiol-2-ylidene)-4-hydroxypiperidinium perchlorate], for the setting “1 mg/kg”, the GPT activity worked out at 1321 ± 197 Karmen units and the “Retained BSP” value is 63.4 ± 10.9 µg/mL. For the same compound, under “5 mg/kg”, the GPT activity is given as 131 ± 10 Karmen units and the “Retained BSP” value worked out at 19.1 ± 2.1 µg/mL.

These data come from patent publication US4737494A, “1,3-dithiole derivatives and pharmaceutical compositions” (priority 1984, dated 1988).
